Experiments:
[1] = target: Alkaline phosphatase, tissue-nonspecific isozyme (Homo sapiens) (UniProt P05186); assay: Concentration required for 50% inhibition of human leukocyte alkaline phosphatase in the presence of 10 mM p-nitrophenyl phosphate as substrate
[2] = target: Alkaline phosphatase, tissue-nonspecific isozyme (Homo sapiens) (UniProt P05186); assay: as above; remark: listed apart in the source

Chain of Alkaline phosphatase, tissue-nonspecific isozyme (Homo sapiens) (P05186 whole entry, looked up): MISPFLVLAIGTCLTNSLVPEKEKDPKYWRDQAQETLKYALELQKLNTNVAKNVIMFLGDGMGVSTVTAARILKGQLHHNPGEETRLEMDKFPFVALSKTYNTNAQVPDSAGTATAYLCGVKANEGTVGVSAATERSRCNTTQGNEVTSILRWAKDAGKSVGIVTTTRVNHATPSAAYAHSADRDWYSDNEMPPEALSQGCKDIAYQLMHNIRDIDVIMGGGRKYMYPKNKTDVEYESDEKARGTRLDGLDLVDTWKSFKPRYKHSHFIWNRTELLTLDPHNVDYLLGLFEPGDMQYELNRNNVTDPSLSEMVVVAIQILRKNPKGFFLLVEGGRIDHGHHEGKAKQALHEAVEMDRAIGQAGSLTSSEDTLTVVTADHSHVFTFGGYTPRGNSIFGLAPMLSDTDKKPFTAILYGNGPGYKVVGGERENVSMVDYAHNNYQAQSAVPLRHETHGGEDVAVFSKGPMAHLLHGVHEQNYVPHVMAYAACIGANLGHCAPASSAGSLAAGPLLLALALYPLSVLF

For `CCCCc1cc2c(O)cc(C(=O)O)nc2c2c(O)cc(C(=O)O)nc12`, the IC50 [1] was 970 µM.

`O=C(O)c1ccc2nc3ccc(O)cc3c(=O)n2c1` showed an IC50 [2] of 340 µM.

In the case of `CCCOc1ccccc1-c1nc2nn[nH]c2c(=O)[nH]1` [5-(2-propoxyphenyl)-2H,3H,7H-[1,2,3]triazolo[4,5-d]pyrimidin-7-one], the IC50 [2] is reported as 1750 µM.

`O=C(O)c1cc(=O)c2c(OCC(O)COc3cccc4oc(C(=O)O)cc(=O)c34)cccc2o1` [Crolom] showed an IC50 [1] of 9680 µM.

Reference: BindingDB's records for doi:10.1021/jm00348a025 (1982)
